One experiment has as its system MDA-N. The experiment can be described thus: NCI tumour cell line growth inhibition, 48 h.
The next experiment concerns T47D. Description: NCI tumour cell line growth inhibition, 48 h.

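Each compound was tested at five concentrations against cells in 96-well plates for 48 hours. GI50: concentration for 50% inhibition of growth.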 Activity calls are given as the source filed them. Cut-off read from the data, not from the text of the source: active = GI50 up to about 1.1 µM and inactive = higher.

Regarding `COc1ccc2c(c1)C(=O)CC(N)C2` (centres undefined), the GI50 in the experiment with MDA-N and in the experiment on T47D was > 100 µM (inactive) throughout.
Regarding `O=C1/C(=C\c2cccc(Oc3ccccc3)c2)SC(c2ccccc2)N1c1ccccc1Cl` (centres undefined), the GI50 in the experiment on MDA-N is 20 µM (inactive); in the experiment on T47D, 27.7 µM (inactive).
`CC(C)(C)OC(=O)C1CC[C@@H](CC(=O)Oc2ccc([N+](=O)[O-])cc2)N1` (some centres undefined): the GI50 with MDA-N was > 100 µM (inactive).
Take `C[C@]12CC[C@@H]3c4ccc(OC(=O)c5ccccc5)cc4CC[C@H]3[C@@H]1CCC2OC(=O)c1cccc2c(=O)c3ccccc3[nH]c12` (some centres undefined): the GI50 with MDA-N was 11.1 µM (inactive); in the experiment with T47D, 26.4 µM (inactive).
In the case of `Cc1ncc([N+](=O)[O-])n1CCN(C)CCCCn1ccnc1[N+](=O)[O-]`, the GI50 in the experiment with MDA-N and in the experiment on T47D was > 100 µM (inactive) each time.
Consider `Cc1nc2ccccc2c(=O)n1NC(=O)c1ccccc1[N+](=O)[O-]`, for which, in the experiment with T47D, the GI50 is > 100 µM (inactive).
Regarding `O=S(=O)(N/C(=N\O)Nc1ccc(Cl)cc1)c1cc(C(F)(F)F)cc(C(F)(F)F)c1`, the GI50 in the experiment with MDA-N is 21 µM (inactive); in the experiment with T47D it was 22.4 µM (inactive).
`O=C(c1ccco1)N1CCN(C(=O)c2ccco2)C1=S`: the GI50 in the experiment with MDA-N is 4.7 µM (inactive); in the experiment with T47D it was 4.78 µM (inactive).
The corresponding values for `COc1cccc2c1C(=O)c1c(O)c3c(c(O)c1C2=O)C[C@@](O)(C(=O)CO)C[C@@H]3OC1CC2C(OCN3CN2COC2C(C)OC(O[C@H]4C[C@](O)(C(=O)CO)Cc5c(O)c6c(c(O)c54)C(=O)c4c(OC)cccc4C6=O)CC23)C(C)O1` (some centres undefined) are 0.0923 µM (active) and 0.0167 µM (active).
As for `CC(=O)NC1=CC(=O)c2cc(C)cc(O)c2C1=O`, the results for the GI50 in the experiment on MDA-N and with T47D were 1.53 µM (inactive) and 14.5 µM (inactive), respectively.
Take `O=C(NCCCCN(CCCNC(=O)C(F)(F)F)Cc1ccc2ccccc2c1)C(F)(F)F`: the figures for the GI50 with MDA-N and with T47D were 17.4 µM (inactive) and 17.7 µM (inactive), respectively.
Consider `CCC(C)c1cnc(CC(C)C)c(=O)[nH]1` (centres undefined), for which the GI50 in the experiment with MDA-N and with T47D was > 100 µM (inactive) in each case.
For `O=C1c2cc(Cl)ccc2N=C(NCCCl)C2CSCN12` (centres undefined), the GI50 in the experiment with MDA-N and in the experiment on T47D was > 100 µM (inactive) each time.
Turning to `CC1(C)CC(=O)C2=C(C1)NC(SCC(=O)O)=C(C#N)C2c1ccc(Br)cc1` (centres undefined), the GI50 in the experiment on MDA-N is > 100 µM (inactive).
As for `CC1=NOC2(C1)C(=O)Nc1ccccc12` (centres undefined), the GI50 in the experiment on MDA-N and in the experiment with T47D was > 100 µM (inactive) each time.
For the compound `[N-]=[N+]=Nc1ccc(NCCCCCC(=O)ON2C(=O)CCC2=O)c([N+](=O)[O-])c1`, the GI50 with T47D was 62.1 µM (inactive).
With `COC(=O)c1sc(=S)sc1SCc1ccccc1CSc1sc(=S)sc1C(=O)OC`, the GI50 in the experiment on MDA-N was > 100 µM (inactive).
For `CC(C)SC(NC(=O)C1C(C)(C)CCC1(C)C)C(=O)O` (centres undefined), the GI50 in the experiment with MDA-N is > 100 µM (inactive).
With `CN(C)CCCOc1nc2c(c(=O)n(C)c(=O)n2C)n1C.SC1=NC=NC2=NC=NC12`, the GI50 in the experiment with T47D is 68.9 µM (inactive).
For `COC(=O)[C@@H]1C[C@@]2(C3C=CN(C(=O)C(F)(F)F)C=C3)c3ccccc3N(C(=O)C(F)(F)F)[C@H]2N1C(=O)OC`, the GI50 with T47D is 46.7 µM (inactive).
With `c1ccc2c(c1)ccc1cc3cc(NCCCCNc4ccc5nc6c(ccc7ccccc76)cc5c4)ccc3nc12`, the GI50 with T47D is 0.455 µM (active).
On to `CC(C)(C)C1CC[C@H](O)[C@H]([C@@H](O)CC2CC(=O)N(c3ccccc3)C(=O)C2)C1` (some centres undefined), for which the GI50 in the experiment on MDA-N is > 100 µM (inactive).
`COc1ccc(-c2c(C#N)c(O)n(NS(=O)(=O)c3ccc(C)cc3)c(=O)c2C#N)cc1`: the GI50 with MDA-N was 77.8 µM (inactive).
As to `O=C1OCC(c2ccc(Cl)cc2)=C1Cl`, the GI50 in the experiment on T47D was 34.7 µM (inactive).
Turning to `CC(C)N1[C@@H]2CCCC[C@H]2N(C(C)C)P1(=O)C(=O)/C=C/c1ccccc1`, the GI50 in the experiment on MDA-N is 1.83 µM (inactive).
On the same count and under the same terms, with `O=C(Cc1ccccc1)N/N=C(/CCN1CCCC1)CC(c1ccccc1)c1c(O)c2ccccc2oc1=O` (centres undefined) the figure was > 100 µM (inactive).
Turning to `O=C(CSCC(=O)N/N=C\c1cc(Br)cc(Br)c1O)N/N=C\c1cc(Br)cc(Br)c1O`, the GI50 in the experiment on T47D is 32.1 µM (inactive).

Source of the values: ChEMBL document CHEMBL1201862, “PubChem BioAssay data set” (2004).
